In ChEMBL document CHEMBL5038674, “Structure-Activity Relationship of Anti-Mycobacterium abscessus Piperidine-4-carboxamides, a New Class of NBTI DNA Gyrase Inhibitors” (ACS Med Chem Lett, 2022):
Converted amounts (≈) assume the structure as drawn. The source made the active and inactive calls. No cut-off for these calls is given here.

Legend:
[1] = Lipophilicity, logP of compound; format: physicochemical; conditions: octanol/water
[2] = Antimycobacterial activity against Mycobacterium abscessus subsp. abscessus bamboo strain assessed as inhibition of mycobacterial growth incubated for 3 days by broth microdilution method; format: functional; conditions: Mycobacteroides abscessus, 72 h, time 3 day
Staphylococcus aureus = experiment: Antibacterial activity against Staphylococcus aureus assessed as inhibition of bacterial growth incubated for 3 days by broth microdilution method; format: functional; conditions: 72 h, time 3 day
NIH3T3 = experiment: Cytotoxicity against mouse NIH3T3 cells assessed as reduction in cell viability upto 30 uM after 24 hrs by SRB assay; format: toxicity, cell-based; conditions: nih3t3, 24 h
HT-29 = experiment: Cytotoxicity against human HT-29 cells assessed as reduction in cell viability upto 30 uM after 24 hrs by SRB assay; format: functional, cell-based; conditions: dose microM <=30, time 24.0 hrs
MCF7 = experiment: Cytotoxicity against human MCF7 cells assessed as reduction in cell viability upto 30 uM after 24 hrs by SRB assay; format: functional, cell-based; conditions: dose microM <=30, time 24.0 hrs
FaDu = experiment: Cytotoxicity against human FaDu cells assessed as reduction in cell viability upto 30 uM after 24 hrs by SRB assay; format: functional, cell-based; conditions: dose microM <=30, time 24.0 hrs
[3] = Antimycobacterial activity against Mycobacterium abscessus subsp. massiliense CCUG 48898T assessed as inhibition of mycobacterial growth incubated for 3 days by broth microdilution method; format: functional; conditions: Mycobacteroides abscessus, 72 h, time 3 day
HEK293 = experiment: Cytotoxicity against human HEK293 cells assessed as reduction in cell viability upto 30 uM after 24 hrs by SRB assay; format: toxicity, cell-based; conditions: hek293, 24 h
[4] = system: Mycobacteroides abscessus; experiment: Antimycobacterial activity against Mycobacterium abscessus K21 assessed as inhibition of mycobacterial growth incubated for 3 days by broth microdilution method; format: functional; conditions: K21, 72 h, time 3 day
A-375 = experiment: Cytotoxicity against human A375 cells assessed as reduction in cell viability upto 30 uM after 24 hrs by SRB assay; format: functional, cell-based; conditions: dose microM <=30, time 24.0 hrs
[5] = system: Mycobacteroides abscessus; experiment: Antimycobacterial activity against Mycobacterium abscessus ATCC 19977 assessed as inhibition of mycobacterial growth incubated for 3 days by broth microdilution method; format: functional; conditions: ATCC 19977, 72 h, time 3 day
Mycobacterium avium = experiment: Antimycobacterial activity against Mycobacterium avium 11 assessed as inhibition of mycobacterial growth incubated for 3 days by broth microdilution method; format: functional; conditions: Mycobacterium avium, 11, 72 h; time 3 day
[6] = Antimycobacterial activity against Mycobacterium abscessus subsp. bolletii CCUG 50184T assessed as inhibition of mycobacterial growth incubated for 3 days by broth microdilution method; format: functional; conditions: Mycobacteroides abscessus, 72 h, time 3 day
[7] = Inhibition of Mycobacterium abscessus DNA gyrase using pBR322 DNA as substrate […] by fluorescence based microplate reader assay; design: species or system Mycobacteroides abscessus
hERG (KCNH2) = hERG (KCNH2) (Homo sapiens, UniProt Q12809); experiment: Inhibition of human ERG at 10 uM; format: toxicity
[8] = Stability of compound in CD1 mouse plasma assessed as parent compound remaining by QE-HRMS analysis; format: ADME, cell-free
[9] = Stability of compound in CD1 mouse at 25 mg/kg, po by HPLC-MS/MS analysis; format: ADME, organism-based; conditions: in vivo
[10] = target: Voltage-gated inwardly rectifying potassium channel KCNH2 (Homo sapiens, UniProt Q12809); experiment: Inhibition of human ERG; format: toxicity
[11] = system: Mycobacterium abscessus subsp. abscessus; experiment: Upregulation of RecA promoter activity in Mycobacterium abscessus subsp. abscessus ATCC 19977 assessed as bacterial DNA damage by luminescence assay; format: functional
[12] = system: Mycobacterium abscessus subsp. abscessus; experiment: Upregulation of RecA promoter activity in P4C resistant Mycobacterium abscessus subsp. abscessus ATCC 19977 mutant D91N assessed as bacterial DNA damage by luminescence assay; format: functional; conditions: time 3.0 day

Sequence of Voltage-gated inwardly rectifying potassium channel KCNH2 (Q12809 whole entry): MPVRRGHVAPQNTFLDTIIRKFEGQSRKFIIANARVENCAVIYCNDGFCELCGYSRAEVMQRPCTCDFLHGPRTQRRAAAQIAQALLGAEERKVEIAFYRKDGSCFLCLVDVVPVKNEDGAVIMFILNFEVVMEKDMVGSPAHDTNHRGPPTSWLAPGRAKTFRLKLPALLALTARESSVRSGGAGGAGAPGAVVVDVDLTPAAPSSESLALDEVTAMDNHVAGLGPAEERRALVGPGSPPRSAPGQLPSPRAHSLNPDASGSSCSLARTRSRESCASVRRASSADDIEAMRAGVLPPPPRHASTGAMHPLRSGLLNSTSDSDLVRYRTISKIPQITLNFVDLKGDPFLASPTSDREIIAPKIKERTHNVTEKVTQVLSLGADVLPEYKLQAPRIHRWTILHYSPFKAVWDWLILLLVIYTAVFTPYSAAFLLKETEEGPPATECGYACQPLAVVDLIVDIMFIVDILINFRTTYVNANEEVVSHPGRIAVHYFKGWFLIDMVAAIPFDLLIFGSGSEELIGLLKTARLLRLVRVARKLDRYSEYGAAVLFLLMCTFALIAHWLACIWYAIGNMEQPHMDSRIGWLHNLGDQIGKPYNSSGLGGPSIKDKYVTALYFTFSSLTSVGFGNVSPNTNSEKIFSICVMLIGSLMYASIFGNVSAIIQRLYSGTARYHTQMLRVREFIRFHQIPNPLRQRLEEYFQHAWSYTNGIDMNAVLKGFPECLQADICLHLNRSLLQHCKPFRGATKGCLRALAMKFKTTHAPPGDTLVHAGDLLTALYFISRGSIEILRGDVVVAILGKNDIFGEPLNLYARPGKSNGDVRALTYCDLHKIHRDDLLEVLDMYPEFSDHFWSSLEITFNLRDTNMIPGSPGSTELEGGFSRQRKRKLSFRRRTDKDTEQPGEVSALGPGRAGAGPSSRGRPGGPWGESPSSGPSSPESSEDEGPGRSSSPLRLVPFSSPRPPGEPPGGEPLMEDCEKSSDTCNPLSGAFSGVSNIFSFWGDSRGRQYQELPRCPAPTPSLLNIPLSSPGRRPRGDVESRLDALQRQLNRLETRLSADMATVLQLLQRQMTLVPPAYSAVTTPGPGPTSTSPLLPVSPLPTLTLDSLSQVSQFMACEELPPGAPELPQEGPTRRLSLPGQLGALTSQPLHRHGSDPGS
Sequence of hERG (KCNH2) (Q12809 whole entry): as above

COc1ccc2nccc(NC(=O)C3CCN(CCc4ccc(Cl)cc4)CC3)c2c1
logP [1]: 2.8
MIC90 [2]: 50 µM (≈ 21.2 µg/mL)

COc1ccc2nccc(NC(=O)C3CCN(CCc4ccc(C(F)(F)F)c(F)c4)CC3)c2n1
MIC90 (Staphylococcus aureus): 0.5 µM (≈ 0.238 µg/mL)
logP [1]: 3.1
Activity (NIH3T3): Non-Toxic
Activity (HT-29): inactive
Activity (MCF7): inactive
Activity (FaDu): inactive
MIC90 [2]: 0.6 µM (≈ 0.286 µg/mL)
MIC90 [3]: 1.5 µM (≈ 0.715 µg/mL)
Activity (HEK293): Non-Toxic
MIC90 [4]: 2 µM (≈ 0.953 µg/mL)
Activity (A-375): inactive
MIC90 [5]: 0.6 µM (≈ 0.286 µg/mL)
MIC90 (Mycobacterium avium): 0.8 µM (≈ 0.381 µg/mL)
MIC90 [6]: 1 µM (≈ 0.476 µg/mL)

COc1ccc2nccc(NC(=O)C3CCN(CCc4cccc(C(F)(F)F)c4)CC3)c2n1
logP [1]: 2.9
Activity (NIH3T3): Non-Toxic
Activity (HT-29): inactive
Activity (MCF7): inactive
Activity (FaDu): inactive
MIC90 [2]: 12.5 µM (≈ 5.73 µg/mL)
Activity (HEK293): Non-Toxic
Activity (A-375): inactive

COc1ccc2nccc(NC(=O)C3CCN(CCc4c(F)cccc4F)CC3)c2n1
logP [1]: 2.3
MIC90 [2]: 100 µM (≈ 42.6 µg/mL)

COc1ccc2nccc(NC(=O)C3CCN(CCc4ccccc4F)CC3)c2n1
logP [1]: 2.1
MIC90 [2]: 50 µM (≈ 20.4 µg/mL)

COc1ccc2nccc(NC(=O)C3CCN(CCc4ccc(C(F)(F)F)cc4)CC3)c2n1
IC50 [7]: 1500 nM
MIC90 (Staphylococcus aureus): 0.2 µM (≈ 0.0917 µg/mL)
logP [1]: 2.9
inhibition at 10 µM (hERG (KCNH2)): 93%
Activity (NIH3T3): Non-Toxic
Activity (HT-29): inactive
Activity (MCF7): inactive
Activity (FaDu): inactive
Stability [8]: Stable
MIC90 [2]: 1.5 µM (≈ 0.688 µg/mL)
MIC90 [3]: 2 µM (≈ 0.917 µg/mL)
Activity (HEK293): Non-Toxic
MIC90 [4]: 3.5 µM (≈ 1.6 µg/mL)
Activity (A-375): inactive
Stability [9]: Stable
MIC90 [5]: 1.5 µM (≈ 0.688 µg/mL)
MIC90 (Mycobacterium avium): 2.5 µM (≈ 1.15 µg/mL)
MIC90 [6]: 2 µM (≈ 0.917 µg/mL)

COc1ccc2nccc(NS(=O)(=O)C3CCN(CCc4ccc(C(F)(F)F)cc4)CC3)c2n1
logP [1]: 2.4
MIC90 [2]: 100 µM (≈ 49.5 µg/mL)

COc1cnc2ccc(=O)n(CCN3CCC(NCc4ccc(Cl)c(Cl)c4)CC3)c2c1
MIC [2]: < 0.02 µM
IC50 [10]: 1320 nM

COc1ccc2nccc(NC(=O)C3CCN(CCc4ccc(F)c(F)c4)CC3)c2n1
logP [1]: 2.3
MIC90 [2]: 25 µM (≈ 10.7 µg/mL)

COc1ccc2nccc(NC(=O)[C@H]3CC[C@H](NCc4ccc(C(F)(F)F)cc4)CC3)c2n1
IC50 [7]: 1500 nM
MIC90 (Staphylococcus aureus): 0.7 µM (≈ 0.321 µg/mL)
logP [1]: 3.3
Activity (NIH3T3): Non-Toxic
Activity (HT-29): inactive
Activity (MCF7): inactive
Activity (FaDu): inactive
MIC90 [2]: 0.4 µM (≈ 0.183 µg/mL)
MIC90 [3]: 1.2 µM (≈ 0.55 µg/mL)
Activity (HEK293): Non-Toxic
MIC90 [4]: 2 µM (≈ 0.917 µg/mL)
Activity (A-375): inactive
MIC90 [5]: 0.4 µM (≈ 0.183 µg/mL)
MIC90 (Mycobacterium avium): 2 µM (≈ 0.917 µg/mL)
MIC90 [6]: 1 µM (≈ 0.458 µg/mL)

O=c1ccc2ncc(=O)n3c2n1C[C@H]3CN1CCC(NCc2cc3c(cn2)OCCC3)CC1 [GEPOTIDACIN]
IC50 [7]: 2000 nM
Activity [11]: Active
logP [1]: 0.1
MIC90 [2]: 10 µM (≈ 4.49 µg/mL)
Activity [12]: inactive

COc1ccc2nccc(NC(=O)C3CCN(CCc4ccc(F)cc4)CC3)c2n1
logP [1]: 2.1
MIC90 [2]: 50 µM (≈ 20.4 µg/mL)

COc1ccc2nccc(NC(=O)C3CCN(CCc4ccc(OC(F)(F)F)cc4)CC3)c2n1
logP [1]: 4
MIC90 [2]: 100 µM (≈ 47.4 µg/mL)

COc1ccc2nccc(NC(=O)C3CCN(CCc4ccc(F)cc4F)CC3)c2n1
logP [1]: 2.3
MIC90 [2]: 50 µM (≈ 21.3 µg/mL)

COc1ccc2nccc(NC(=O)C3CCN(CCc4ccc(Cl)cc4)CC3)c2n1
IC50 [7]: 3000 nM
logP [1]: 2.6
Activity (HT-29): inactive
Activity (MCF7): inactive
Activity (FaDu): inactive
MIC90 [2]: 12 µM (≈ 5.1 µg/mL)
Activity (A-375): inactive

O=C(Nc1cccc2ccc(Cl)nc12)C1CCN(CCc2ccc(C(F)(F)F)cc2)CC1
IC50 [7]: 3000 nM
logP [1]: 3.9
MIC90 [2]: 50 µM (≈ 23.1 µg/mL)

COc1ccc(CCN2CCC(C(=O)Nc3ccnc4ccc(OC)nc34)CC2)cc1
logP [1]: 1.9
MIC90 [2]: 100 µM (≈ 42.1 µg/mL)

O=C1COc2ccc(CNC3CCN(CCn4c(=O)ccc5ccc(Oc6ccccn6)nc54)CC3)nc2N1
IC50 [7]: 110 nM
MIC [2]: 0.06 µM (≈ 0.0317 µg/mL)
IC50 [10]: 155000 nM

COc1ccc2nccc(NC(=O)C3CCN(CCc4ccc(C(F)(F)F)cc4)CC3)c2c1
IC50 [7]: 6000 nM
logP [1]: 3
MIC90 [2]: 100 µM (≈ 45.7 µg/mL)

COc1c(N2C[C@@H]3CCCN[C@@H]3C2)c(F)cc2c(=O)c(C(=O)O)cn(C3CC3)c12 [MOXIFLOXACIN]
MIC90 (Staphylococcus aureus): 0.2 µM (≈ 0.0803 µg/mL)
MIC90 [2]: 2 µM (≈ 0.803 µg/mL)
MIC90 [3]: 4 µM (≈ 1.61 µg/mL)
MIC90 [4]: 4 µM (≈ 1.61 µg/mL)
MIC90 [5]: 2 µM (≈ 0.803 µg/mL)
MIC90 (Mycobacterium avium): 0.6 µM (≈ 0.241 µg/mL)
MIC90 [6]: 4 µM (≈ 1.61 µg/mL)

COc1ccc2nccc(NC(=O)C3(C)CCN(CCc4ccc(C(F)(F)F)cc4)CC3)c2n1
IC50 [7]: 6000 nM
MIC90 (Staphylococcus aureus): 1 µM (≈ 0.473 µg/mL)
logP [1]: 3.3
Activity (NIH3T3): Non-Toxic
Activity (HT-29): inactive
Activity (MCF7): inactive
Activity (FaDu): inactive
Stability [8]: Stable
MIC90 [2]: 3 µM (≈ 1.42 µg/mL)
MIC90 [3]: 8 µM (≈ 3.78 µg/mL)
Activity (HEK293): Non-Toxic
MIC90 [4]: 8 µM (≈ 3.78 µg/mL)
Activity (A-375): inactive
Stability [9]: Stable
MIC90 [5]: 3 µM (≈ 1.42 µg/mL)
MIC90 (Mycobacterium avium): 6 µM (≈ 2.84 µg/mL)
MIC90 [6]: 6.4 µM (≈ 3.02 µg/mL)

COc1ccc2cccc(NC(=O)C3CCN(CCc4ccc(C(F)(F)F)cc4)CC3)c2n1
IC50 [7]: 3000 nM
logP [1]: 3.6
Activity (NIH3T3): Non-Toxic
Activity (HT-29): inactive
Activity (MCF7): inactive
Activity (FaDu): inactive
MIC90 [2]: 3.12 µM (≈ 1.43 µg/mL)
Activity (HEK293): Non-Toxic
Activity (A-375): inactive

COc1ccc2nccc(NC(=O)C3CCN(CCc4cccc(F)c4F)CC3)c2n1
logP [1]: 2.3
MIC90 [2]: 100 µM (≈ 42.6 µg/mL)

COc1ccc2nccc(NC(=O)CC3CCN(Cc4ccc(C(F)(F)F)cc4)CC3)c2n1
IC50 [7]: 40000 nM
logP [1]: 2.8
MIC90 [2]: 100 µM (≈ 45.8 µg/mL)

COc1ccc2nccc(NC(=O)C3CCN(CCc4cccc(F)c4)CC3)c2n1
logP [1]: 2.1
MIC90 [2]: 25 µM (≈ 10.2 µg/mL)

COc1ccc2nccc(NC(=O)C3CCN(CCc4cc(F)cc(F)c4)CC3)c2n1
logP [1]: 2.3
MIC90 [2]: 50 µM (≈ 21.3 µg/mL)
